The structures appear in SMILES notation. Numbers after ± are expanded uncertainties.

Two compounds from the NIST ThermoML archive (doi:10.1021/je201152j) can be followed below.

Series [1] in a line: refractive index (Na D-line) (dimensionless). To be noted: 298.15 K; 101.33 kPa; Liquid; Standard Abbe refractometry.
The conditions of series [2]: 298.15 K, 101.33 kPa, Liquid; for viscosity: Capillary tube (Ostwald / Ubbelohde) method; for speed of sound: Sing-around technique in a fixed-path interferometer; for mass density: Vibrating tube method.

One may read the refractive index as the speed of light in vacuum divided by its phase velocity in the sample. Broadly, the viscosity is the internal friction of a fluid under shear. The term speed of sound denotes the propagation velocity of pressure waves in the medium. What is called mass density is mass per unit of volume. For `CN1CCCC1=O` [N-methylpyrrolidone], the refractive index in series [1] was 1.468 ± 0.0004. Further, in series [2], the viscosity is on record as 1.681 ± 0.013 mPa·s, the speed of sound was 1545.2 ± 1.9 m/s and the mass density amounted to 1028.3 ± 0.5 kg/m3.

On to `CCO` [ethanol], for which the refractive index in series [1] turned out to be 1.3595 ± 0.0004. Besides, in series [2], the viscosity was 1.091 ± 0.008 mPa·s, the speed of sound is reported as 1144.2 ± 1.6 m/s and the mass density is recorded as 785.21 ± 0.42 kg/m3.
